Results on 32 molecules are retold here after ChEMBL document CHEMBL1177713, “Discovery of 3-[2-(imidazo[1,2-b]pyridazin-3-yl)ethynyl]-4-methyl-N-{4-[(4-methylpiperazin-1-yl)methyl]-3-(trifluoromethyl)phenyl}benzamide (AP24534), a potent, orally active pan-inhibitor of breakpoint cluster region-abelson (BCR-ABL) kinase including the T315I gatekeeper mutant” (J Med Chem, 2010).

Data set [1] deals with BaF3. Description: cells. The note with it: Mus musculus, BaF3, 72 h.
Description: Antiproliferative activity against mouse BA/F3 cells expressing ABL T315I mutant after 3 days by MTS assay
Data set [2] concerns BaF3. In words: cells. The note with it: Mus musculus, BaF3, 72 h. The source holds these as a separate data set.
Description: Antiproliferative activity against mouse BA/F3 cells after 3 days by MTS assay
For data set [3], the system named is BaF3. Description: cells. The note with it: Mus musculus, BaF3, 72 h. This is another data set of the same source.
Description: Antiproliferative activity against mouse BA/F3 cells expressing wild type ABL after 3 days by MTS assay
Data set [4] can be described thus: Half life in CD rat at 15 mg/kg, po by LC-MS/MS analysis. Type of data set: ADME, organism-based. Also noted: dose 15 mg/kg, route oral. The following applies: in vivo.
The subject of another data set is Rattus norvegicus. In words: Dose normalized AUC (0 to 24 hrs) in CD rat at 15 mg/kg, po by LC-MS/MS analysis. It counts as ADME, organism-based. More on the design: time < 24 hr, dose 15 mg/kg, route oral. The following applies: in vivo.
Data set [5] in a line: Half life in CD rat at 5 mg/kg, iv by LC-MS/MS analysis. It counts as ADME, organism-based. Also noted: dose 5 mg/kg, route intravenous. The note with it: in vivo.
Data set [6] in a line: Clearance in CD rat at 5 mg/kg, iv by LC-MS/MS analysis. Also noted: dose 5 mg/kg, route intravenous. The note with it: in vivo. Type of data set: ADME, organism-based.
A short description of data set [7]: Tmax in CD rat at 15 mg/kg, po by LC-MS/MS analysis. Type of data set: ADME, organism-based. More on the design: dose 15 mg/kg, route oral. The following applies: in vivo.
Data set [8] is described as follows: Volume of distribution in CD rat at 5 mg/kg, iv by LC-MS/MS analysis. It counts as ADME, organism-based. The following applies: in vivo. Also noted: dose 5 mg/kg, route intravenous.
The nature of data set [9]: Oral bioavailability in CD rat at 15 mg/kg by LC-MS/MS analysis. It counts as ADME, organism-based. The note with it: in vivo.
A short description of data set [10]: Cmax in CD rat at 15 mg/kg, po by LC-MS/MS analysis. Type of data set: ADME, organism-based. More on the design: dose 15 mg/kg, route oral. The following applies: CD, in vivo.

The structures appear in SMILES notation.

Usually IC50 stands for the concentration that gives 50% inhibition. Read a high IC50 as lower potency. Regarding `Cc1ccc(C(=O)Nc2ccc(CN3CCN(C(C)C)CC3)c(C(F)(F)F)c2)cc1C#Cc1cnc2ccccn12`, the IC50 in the data set on BaF3 [1] stood at 0.043 µM; with BaF3 [2] it was 1.65 µM; in the data set on BaF3 [3], 0.008 µM.

In the case of `CN1CCN(Cc2ccc(NC(=O)c3cccc(C#Cc4cnc5cccnn45)c3)cc2C(F)(F)F)CC1`, the results for the IC50 with BaF3 [1], in the data set with BaF3 [2] and in the data set on BaF3 [3] were 0.039 µM, 4.21 µM and 0.0023 µM, respectively.

A word on the half-life: it is the time needed for the level to fall by half in the phase considered. As for `Cc1ccc(C(=O)Nc2cc(C(F)(F)F)ccn2)cc1C#Cn1cnc2c(NC3CC3)ncnc21`, the IC50 in the data set on BaF3 [1] worked out at 0.548 µM; with BaF3 [3], 0.002 µM. In addition, in data set [4], the half-life was 1.5 h. Moreover, the AUC in the data set on Rattus norvegicus was found to be 11.8 ng·h/mL/mg/kg.

In the case of `Cc1ccc(C(=O)Nc2cc(C(F)(F)F)ccn2)cc1/C=C/n1cnc2c(NC3CC3)ncnc21`, the half-inhibitory concentration (IC50) with BaF3 [3] is 0.0048 µM.

For the molecule `Cc1ccc(C(=O)Nc2ccc(CN3CCN(C)CC3)c(Cl)c2)cc1C#Cc1cnc2cccnn12`, the half-maximal inhibitory concentration (IC50) in the data set on BaF3 [1] was determined as 0.21 µM; in the data set on BaF3 [2], 1.92 µM; in the data set on BaF3 [3], 0.0023 µM.

For orientation: clearance means the volume of plasma or blood freed of the substance per unit of time. The low end stands for inefficient removal, the high end for efficient removal. Usually Tmax stands for the time from dosing to the highest level. As usually defined, the Vd is a proportionality between amount in the body and measured concentration, not a real space. Low values mean confinement near the circulation, high ones extensive tissue distribution. What is called bioavailability is dose-corrected exposure relative to a reference, in per cent. On to `Cc1ccc(C(=O)Nc2ccc(CN3CCN(C)CC3)c(C(F)(F)F)c2)cc1C#Cc1cnc2cccnn12` [PONATINIB], for which the results for the IC50 with BaF3 [1] and in the data set with BaF3 [3] were 0.0088 µM and 0.0012 µM, respectively. For the same molecule, the half-life was 10.2 h in data set [5] and 11 h in data set [4]. Further, the clearance in data set [6] is 10.8 mL/min/kg. In data set [7], the Tmax was 6 h. Further, the AUC with Rattus norvegicus turned out to be 278.5 ng·h/mL/mg/kg. For the same molecule, the Vd in data set [8] was found to be 9.7 L/kg. The molecule also returned a bioavailability in [9] of 18.2%.

In the case of `Cc1ccc(C(=O)Nc2ccc(CN3CCN(C)CC3)c(C(F)(F)F)c2)cc1C#Cc1cnc2c(c1)OCC(=O)N2`, the half-inhibitory concentration (IC50) in the data set with BaF3 [1] amounted to 0.017 µM; in the data set on BaF3 [2] it was 0.369 µM; in the data set on BaF3 [3], 0.003 µM.

Consider `Cc1ccc(C(=O)Nc2ccc(CN3CCN(C)CC3)c(C(F)(F)F)c2)cc1/C=C/c1cnc2cccnn12`, for which the half-inhibitory concentration (IC50) in the data set on BaF3 [1] was determined as 0.211 µM; with BaF3 [2] it was 3.24 µM; with BaF3 [3], 0.0079 µM.

Turning to `Cc1ccc(C(=O)Nc2ccc(CN3CCOCC3)c(C(F)(F)F)c2)cc1C#Cc1cnc2ccccn12`, the half-inhibitory concentration (IC50) in the data set with BaF3 [1] came to 0.727 µM; with BaF3 [2], 7.44 µM; in the data set on BaF3 [3] it was 0.0021 µM.

In the data set on BaF3 [3], `Cc1ccc(C(=O)Nc2cc(-n3ccnc3)cc(C(F)(F)F)c2)cc1/C=C/n1cnc2c(NC3CC3)ncnc21` gave a half-maximal inhibitory concentration (IC50) of 0.0042 µM.

`Cc1cn(-c2cc(NC(=O)c3ccc(C)c(/C=C/n4cnc5c(NC6CC6)ncnc54)c3)cc(C(F)(F)F)c2)cn1`: in the data set on BaF3 [3], the IC50 is 0.0073 µM.

A word on the Cmax: it is the maximum level reached in the sampled fluid or tissue. Molecule `Cc1ccc(C(=O)Nc2cc(-n3ccnc3)cc(C(F)(F)F)c2)cc1C#Cc1cnc2c(N)cccn12` yielded a Cmax in data set [10] of 234 ng/mL. The figures for the IC50 in the data set with BaF3 [1], in the data set with BaF3 [2] and with BaF3 [3] were 0.072 µM, 10 µM and 0.0086 µM, respectively. In addition, the figures for the half-life in data set [5] and in data set [4] were 15.8 h and 5.2 h, respectively. In addition, in [6], the clearance was 6 mL/min/kg. For the same molecule, the Tmax in data set [7] was 1 h. The molecule also showed an AUC in the data set with Rattus norvegicus of 151.9 ng·h/mL/mg/kg. Further, in data set [8], the volume of distribution (Vd) worked out at 8.2 L/kg. The molecule further yielded a bioavailability in data set [9] of 5.5%.

As to `Cc1ccc(C(=O)Nc2cc(-n3ccnc3CN(C)C)cc(C(F)(F)F)c2)cc1C#Cc1cnc2ccccn12`, the values for the IC50 in the data set on BaF3 [1], with BaF3 [2] and in the data set on BaF3 [3] were 0.251 µM, 7.01 µM and 0.011 µM, respectively.

For the molecule `Cc1ccc(C(=O)Nc2cc(-n3cnc(CN4CCCC4)c3)cc(C(F)(F)F)c2)cc1C#Cc1cnc2ccccn12`, the IC50 in the data set on BaF3 [1] turned out to be 0.135 µM; with BaF3 [2], 3.54 µM; in the data set with BaF3 [3], 0.0094 µM.

`CCN1CCN(Cc2ccc(NC(=O)c3ccc(C)c(C#Cc4cnc5ccccn45)c3)cc2C(F)(F)F)CC1`: the IC50 in the data set on BaF3 [1] was determined as 0.049 µM; with BaF3 [2], 1.95 µM; with BaF3 [3] it was 0.0052 µM.

For the molecule `Cc1ccc(C(=O)Nc2ccc(CN3CCNCC3)c(C(F)(F)F)c2)cc1C#Cc1cnc2cccnn12`, the concentration for half-maximal inhibition (IC50) in the data set with BaF3 [1] came to 0.034 µM; in the data set with BaF3 [2], 0.915 µM; with BaF3 [3], 0.004 µM.

Take `Cc1ccc(C(=O)Nc2ccc(CN3CCN(CCO)CC3)c(C(F)(F)F)c2)cc1C#Cc1cnc2ccccn12`: the 50% inhibitory concentration (IC50) with BaF3 [1] was found to be 0.042 µM; with BaF3 [2], 1.96 µM; in the data set with BaF3 [3] it was 0.0023 µM.

With `Cc1ccc(C(=O)Nc2ccc(CN3CCCN(C)CC3)c(C(F)(F)F)c2)cc1C#Cc1cnc2ccccn12`, the IC50 with BaF3 [1] was 0.157 µM; with BaF3 [2], 1.88 µM; in the data set on BaF3 [3] it was 0.0084 µM.

For `Cc1ccc(C(=O)Nc2ccc(CN3CCN(C)CC3)c(C(F)(F)F)c2)cc1C#Cc1cnc2nc[nH]c2c1`, the peak level in [10] (Cmax) was 32.7 ng/mL. In addition, the half-inhibitory concentration (IC50) in the data set with BaF3 [1] turned out to be 0.042 µM; in the data set on BaF3 [2], 0.89 µM; with BaF3 [3], 0.0034 µM. Moreover, the half-life in data set [5] is 5.4 h. Further, in [6], the clearance is 34 mL/min/kg. Besides, the Tmax in data set [7] amounted to 6 h. Also, the AUC result in the data set with Rattus norvegicus (BLD = below limit of detection) was “BLD”. Also, the Vd in data set [8] came to 15.9 L/kg.

Turning to `Cc1ccc(C(=O)Nc2ccc(CN3CCNC(C)C3)c(C(F)(F)F)c2)cc1C#Cc1cnc2ccccn12` (stereo not given), the half-inhibitory concentration (IC50) worked out at 0.203 µM with BaF3 [1], 3.97 µM with BaF3 [2] and 0.0095 µM with BaF3 [3].

For the molecule `Cc1ccc(C(=O)Nc2ccc(CN3CCN(C)CC3)c(C(F)(F)F)c2)cc1CCc1cnc2cccnn12`, the half-inhibitory concentration (IC50) in the data set with BaF3 [1] was determined as 0.295 µM; in the data set with BaF3 [2], 6 µM; with BaF3 [3] it was 0.0043 µM.

For `Cc1ccc(C(=O)Nc2cc(CN3CCN(C)CC3)cc(C(F)(F)F)c2)cc1C#Cc1cnc2ccccn12`, the IC50 was 0.232 µM in the data set with BaF3 [1], 5.38 µM with BaF3 [2] and 0.011 µM in the data set with BaF3 [3].

Turning to `Cc1ccc(C(=O)Nc2ccc(CN3CCN(C)CC3)c(C(F)(F)F)c2)cc1C#Cc1cnc2ncccn12`, the figures for the 50% inhibitory concentration (IC50) in the data set with BaF3 [1], in the data set on BaF3 [2] and in the data set on BaF3 [3] were 0.5 µM, 1.5 µM and 0.01 µM, respectively.

In the case of `Cc1ccc(C(=O)Nc2ccc(CN3CCNCC3)c(C(F)(F)F)c2)cc1C#Cc1cnc2ccccn12`, the IC50 in the data set on BaF3 [1] was determined as 0.022 µM; in the data set with BaF3 [2], 2.08 µM; in the data set with BaF3 [3], 0.0035 µM.

As for `CC(=O)Nc1cccn2c(C#Cc3cc(C(=O)Nc4cc(-n5ccnc5)cc(C(F)(F)F)c4)ccc3C)cnc12`, the concentration for half-maximal inhibition (IC50) in the data set on BaF3 [1] came out at 0.044 µM; in the data set with BaF3 [2] it was 7.39 µM; with BaF3 [3], 0.011 µM.

For the molecule `Cc1ccc(C(=O)Nc2ccc(OC3CCN(C)CC3)c(C(F)(F)F)c2)cc1C#Cc1cnc2ccccn12`, the results for the IC50 in the data set with BaF3 [1], with BaF3 [2] and with BaF3 [3] were 0.077 µM, 1.01 µM and 0.0034 µM, respectively.

`Cc1ccc(C(=O)Nc2cc(C(F)(F)F)on2)cc1/C=C/n1cnc2c(NC3CC3)ncnc21`: the results for the half-inhibitory concentration (IC50) in the data set with BaF3 [1] and with BaF3 [3] were 7.12 µM and 0.012 µM, respectively.

Consider `Cc1ccc(C(=O)Nc2ccc(CN3CC[C@H](N(C)C)C3)c(C(F)(F)F)c2)cc1C#Cc1cnc2ccccn12`, for which the IC50 with BaF3 [1] was determined as 0.058 µM; in the data set on BaF3 [2] it was 0.812 µM; in the data set with BaF3 [3], 0.0054 µM.

Turning to `Cc1ccc(C(=O)Nc2ccc(CN3CCN(CCF)CC3)c(C(F)(F)F)c2)cc1C#Cc1cnc2ccccn12`, the IC50 with BaF3 [1] is 0.166 µM; in the data set with BaF3 [2], 0.971 µM; with BaF3 [3], 0.004 µM.

`Cc1ccc(NC(=O)c2ccc(CN3CCN(C)CC3)c(C(F)(F)F)c2)cc1C#Cc1cnc2ccccn12`: the IC50 in the data set with BaF3 [1] turned out to be 0.05 µM; with BaF3 [2], 1.8 µM; with BaF3 [3], 0.002 µM.

In the case of `Cc1ccc(C(=O)Nc2cccc(C(F)(F)F)c2)cc1C#Cc1cnc2cccnn12`, the values for the half-inhibitory concentration (IC50) with BaF3 [1], in the data set on BaF3 [2] and with BaF3 [3] were 1.13 µM, 10 µM and 0.01 µM, respectively.

With `Cc1ccc(C(=O)Nc2ccc(CN3CCN(C)CC3)c(C3CC3)c2)cc1C#Cc1cnc2cccnn12`, the results for the concentration for half-maximal inhibition (IC50) in the data set with BaF3 [1], with BaF3 [2] and with BaF3 [3] were 0.256 µM, 1.87 µM and 0.0039 µM, respectively.
